pEC50: −log10 of the molar value. Read-outs that look alike come from different tables or passages of the source.
What was measured:
HCC827 = experiment: Cell viability assay; assay type: cell-based; conditions: Homo sapiens, 24 h; HCC827 (Lung); read-out: AZD5991 24h GI50
Procedure: (§1) Cells were plated at 3000 cells/well in 384-well white plates in corresponding cell growth media. […] Caspase-3/7 activation was subsequently determined using a Caspase-Glo 3/7 Reagent (Promega) and viability was assayed using the CellTiter-Glo Reagent (Promega) as described in manufacturer’s instructions. Dose–response curves for caspase-3/7 activation and viability were plotted and analyzed (including EC50 and GI50 determination) using GraphPad Prism.

ULA = experiment: Cell viability assay; assay type: cell-based; conditions: 24 h; ULA (NHL); read-out: AZD5991 24h GI50
Procedure: as §1

CMK = experiment: Cell viability assay; assay type: cell-based; conditions: Homo sapiens, 24 h; CMK (AML); read-out: AZD5991 24h GI50
Procedure: as §1

WSUNHL = experiment: Cell viability assay; assay type: cell-based; conditions: Homo sapiens, WSU-NHL, 24 h, read-out: AZD5991 24h GI50
Procedure: as §1

T47D = experiment: Cell viability assay; assay type: cell-based; conditions: Homo sapiens, 24 h; T47D (Breast); read-out: AZD5991 24h GI50
Procedure: as §1

U2OS = experiment: Cell viability assay; assay type: cell-based; conditions: Homo sapiens, 24 h; U2OS (Others); read-out: AZD5991 24h GI50
Procedure: as §1

H1975 = experiment: Cell viability assay; assay type: cell-based; conditions: Homo sapiens, NCI-H1975, 24 h; H1975 (Lung); read-out: AZD5991 24h GI50
Procedure: as §1

H1048 = experiment: Cell viability assay; assay type: cell-based; conditions: Homo sapiens, NCI-H1048, 24 h; H1048 (Lung); read-out: AZD5991 24h GI50
Procedure: as §1

[1] = system: Eμ-Myc lymphoma cells stably expressing human Bcl-w; experiment: Apoptosis induction in Eμ-Myc lymphoma cells; conditions: overexpression of Bcl-w, 24 h
Excerpt: The retroviral plasmids to express human Bcl-2 family members in murine Eμ-Myc lymphoma cells are MSCV-hMCL-1-GFP, MSCV-hBCL-2-GFP, MSCV-hBCL-XL-GFP, MSCV-hBFL-1/A1-GFP, and MSCV-hBCL-w-GFP. To produce viruses, constructs of interest were co-transfected into HEK293T cells with the plasmid encoding the packaging viruses (p-CL-AMPHO provided by Phillip Darcy from Peter MacCallum Cancer Center, Melbourne, Australia) using standard calcium phosphate transient transfection technique. The retroviruses were harvested, filtered and used to infect target cells following standard procedures.
Samples were then centrifuged, washed twice with PBS and analyzed by flow cytometry in a BD LSRFortessa. FACSDiva software was used for data collection and FlowJo software for data analysis.

H1568 = experiment: Cell viability assay; assay type: cell-based; conditions: NCI-H1568, 24 h; H1568 (Lung); read-out: AZD5991 24h GI50
Procedure: as §1

MOLP-8 cells = experiment: Kinetics of apoptosis and cell death markers; assay type: cell-based
Procedure: Data presented in Fig. 4b was calculated as follows:4 TMRE:(TMREnegativesample-TMREnegativeDMSO)∕(TMREnegative500nMAZD5991@24h-TMREnegativeDMSO)×100 5 Annexin V : (Annexin V positive sample) - Annexin positive DMSO∕(Annexin positive 500nM AZD5991@24h) - Annexin positive DMSO × 100 6 7AAD : (7AAD positive sample) - 7AAD positive 500nM AZD5991@0.5h∕(7AAD positive 500nM AZD5991@16h) - 7AAD positive 500nM AZD5991@0.5h × 100

OPM2 = experiment: Cell viability assay; assay type: cell-based; conditions: Homo sapiens, OPM-2, 24 h; OPM2 (MM); read-out: AZD5991 24h GI50
Procedure: as §1

MOLP8 = experiment: Caspase-3/7 activation assay; assay type: cell-based; conditions: Homo sapiens
Procedure: as §1

U266B1 = experiment: Cell viability assay; assay type: cell-based; conditions: 24 h; U266B1 (MM); read-out: AZD5991 24h GI50
Procedure: as §1

Kasumi3 = experiment: Cell viability assay; assay type: cell-based; conditions: Kasumi-3, 24 h; Kasumi3 (AML); read-out: AZD5991 24h GI50
Procedure: as §1

MV411 = experiment: Cell viability assay; assay type: cell-based; conditions: Homo sapiens, MV4-11, 24 h; MV411 (AML); read-out: AZD5991 24h GI50
Procedure: as §1

Sudhl16 = experiment: Cell viability assay; assay type: cell-based; conditions: Homo sapiens, SU-DHL-16, 24 h; Sudhl16 (NHL); read-out: AZD5991 24h GI50
Procedure: as §1

RCK8 = experiment: Cell viability assay; assay type: cell-based; conditions: Homo sapiens, 24 h; RCK8 (NHL); read-out: AZD5991 24h GI50
Procedure: as §1

JVM2 = experiment: Cell viability assay; assay type: cell-based; conditions: Homo sapiens, JVM-2, 24 h; JVM2 (NHL); read-out: AZD5991 24h GI50
Procedure: as §1

Sudhl10 = experiment: Cell viability assay; assay type: cell-based; conditions: Homo sapiens, SU-DHL10, 24 h; Sudhl10 (NHL); read-out: AZD5991 24h GI50
Procedure: as §1

SKBR3 = experiment: Cell viability assay; assay type: cell-based; conditions: Homo sapiens, SK-BR-3, 24 h; SKBR3 (Breast); read-out: AZD5991 24h GI50
Procedure: as §1

H196 = experiment: Cell viability assay; assay type: cell-based; conditions: NCI-H196, 24 h; H196 (Lung); read-out: AZD5991 24h GI50
Procedure: as §1

OCIAML5 = experiment: Cell viability assay; assay type: cell-based; conditions: Homo sapiens, OCI-AML-5, 24 h, read-out: AZD5991 24h GI50
Procedure: as §1

WSUDLCL2 = experiment: Cell viability assay; assay type: cell-based; conditions: Homo sapiens, 24 h; WSUDLCL2 (NHL); read-out: AZD5991 24h GI50
Procedure: as §1

KMS11 = experiment: Cell viability assay; assay type: cell-based; conditions: Homo sapiens, KMS-11, 24 h; KMS11 (MM); read-out: AZD5991 24h GI50
Procedure: as §1

H23 = experiment: Caspase-3/7 activation assay; assay type: cell-based; conditions: Homo sapiens
Procedure: as §1

HBL1 = experiment: Cell viability assay; assay type: cell-based; conditions: 24 h; HBL1 (NHL); read-out: AZD5991 24h GI50
Procedure: as §1

Z-138 = experiment: Cell viability assay; assay type: cell-based; conditions: Homo sapiens, 24 h; Z-138 (NHL); read-out: AZD5991 24h GI50
Procedure: as §1

Compound: Cc1c2c(nn1C)CSCc1cc(n(C)n1)CSc1cc(c3ccccc3c1)OCCCc1c(C(=O)O)n(C)c3c-2c(Cl)ccc13 (atropisomer, axis not shown; (Ra)) [(Ra)-7]
- GI50 (HCC827): 20100 nM
- GI50 (ULA): 91 nM
- GI50 (CMK): > 30000 nM
- GI50 (WSUNHL): 221 nM
- GI50 (T47D): > 30000 nM
- GI50 (U2OS): 20600 nM
- GI50 (H1975): 17600 nM
- GI50 (H1048): 4250 nM
- apoptosis-inducing activity [1]: blocked
- GI50 (H1568): 272 nM
- time to loss of ATP and disruption of the cell membrane (MOLP-8 cells): less than 24 h
- time to maximum increase in MOMP, caspase-3/7 activation and phosphatidyl-serine exposure (MOLP-8 cells; MOLP-8 cells, 500 nM): less than 2 h
- GI50 (OPM2): 57 nM
- pEC50 (MOLP8; MOLP-8, 6 h, read-out: AZD5991 6h EC50, MOLP8 (MM), caspase 3/7 activation): 7.24
- pEC50 (MOLP8; MOLP-8, MOLP-8 cells, 0% serum, read-out: caspase-inducing activity EC50): 9.00
- pEC50 (MOLP8; MOLP-8, MOLP-8 cells, 2% serum, read-out: caspase-inducing activity EC50): 8.10
- pEC50 (MOLP8; MOLP-8, caspase activation, Mcl-1-dependent cell line, read-out: MOLP-8, EC50): 7.48
- EC50 (MOLP8; MOLP-8, mean of log transformed data, read-out: MOLP-8 caspase pEC50 (converted)): 33.1 nM
- GI50 (U266B1): > 30000 nM
- GI50 (Kasumi3): 172 nM
- GI50 (MV411): 13 nM
- GI50 (Sudhl16): 119 nM
- GI50 (RCK8): > 30000 nM
- GI50 (JVM2): 547 nM
- GI50 (Sudhl10): 10 nM
- GI50 (SKBR3): 118 nM
- GI50 (H196): > 30000 nM
- GI50 (OCIAML5): 11000 nM
- GI50 (WSUDLCL2): 109 nM
- GI50 (KMS11): 540 nM
- pEC50 (H23; NCI-H23, 6 h, read-out: AZD5991 6h EC50, H23 (Lung), caspase 3/7 activation): 6.46
- pEC50 (H23; NCI-H23, caspase activation, Mcl-1-dependent cell line, read-out: NCI-H23, EC50): 6.72
- EC50 (H23; NCI-H23, mean of log transformed data, read-out: NCI-H23 caspase pEC50 (converted)): 195 nM
- GI50 (HBL1): 8320 nM
- GI50 (Z-138): 290 nM

— article PMC6297231 (Nature Communications, 2018)
